The numbers were not newly measured in patent publication US20110256530A1, “PRODUCTS AND METHODS FOR TISSUE PRESERVATION” (GenVault Corporation, priority 2010, published 2011), which cites them from elsewhere.

For series [1] the following is noted: charge state, pH 7, literature references (30)-(33).
A further series has as its system nucleases. Conditions: Table I, description in words.
The conditions of series [2]: 25° C.

Take `Cn1cncc1C[C@H](NC(=O)CCN)C(=O)O` [Anserine, Anserine (Alanine-methyl-histidine)]: the “Useful Chemical Properties” value in series [1] was “Cation at pH 7 (32)”.

On to `OC[C@@H](O)[C@@H](O)[C@H](O)[C@H](O)CO` [Mannitol], for which, in series [1], the “Useful Chemical Properties” value is “Neutral (31)”.

Consider “Aurinetricarboxylic Acid [Aurinetricarboxylic Acid (ATA)n]”, for which the Activity entry in the series on nucleases is “derivative, broad spectrum”.

Consider `O=C(O)CN(CCN(CC(=O)O)CC(=O)O)CC(=O)O` [EDTA], for which the Activity entry in the series with nucleases is “Divalent Chelator, Inhibitor”.

On to `N[C@@H](Cc1c[nH]cn1)C(=O)O` [Histidine], for which, in series [1], the “Useful Chemical Properties” value was “Neutral zwitterions”.

In the case of “Uridine-Vanadate [Uridine-Vanadate U-V04]”, the Activity entry in the series on nucleases was “RNase specific Inhibitor”.

`C=O` [formalin, methylene glycol]: in series [2], the “permeation through tissue block” value is recorded as “about 1 mm of tissue block per hour”.

B1: RI: Large (~450 residues, ~49 kDa), acidic leucine-rich repeat protein that binds ribonucleases (protein, UniProt P13489 2-461, looked up)
Ribonuclease inhibitor: SLDIQSLDIQCEELSDARWAELLPLLQQCQVVRLDDCGLTEARCKDISSALRVNPALAELNLRSNELGDVGVHCVLQGLQTPSCKIQKLSLQNCCLTGAGCGVLSSTLRTLPTLQELHLSDNLLGDAGLQLLCEGLLDPQCRLEKLQLEYCSLSAASCEPLASVLRAKPDFKELTVSNNDINEAGVRVLCQGLKDSPCQLEALKLESCGVTSDNCRDLCGIVASKASLRELALGSNKLGDVGMAELCPGLLHPSSRLRTLWIWECGITAKGCGDLCRVLRAKESLKELSLAGNELGDEGARLLCETLLEPGCQLESLWVKSCSFTAACCSHFSSVLAQNRFLLELQISNNRLEDAGVRELCQGLGQPGSVLRVLWLADCDVSDSSCSSLAATLLANHSLRELDLSNNCLGDAGILQLVESVRQPGCLLEQLVLYDIYWSEEMEDRLQALEKDKPSLRVIS
For the molecule B1, in the series with ribonucleases, the “complexes with certain ribonucleases” value is given as “extremely tight complexes”.
